Measured values taken from patent publication US20110086834A1, “ALKYNYL ALCOHOLS AS KINASE INHIBITORS” (AMGEN INC., priority 2008, published 2011).

Molecular target: T1, NIK (Homo sapiens, UniProt Q99558)
T1 construct: Both assays utilize a truncated form of NIK containing only the catalytic domain; made in house; host or cells: baculovirus expression system (insect cells implied)
Test: homogenous time resolved fluorescence (HTRF) assay for NIK Ki measurement
Type: biochemical
Details: truncated NIK (catalytic domain only), autophosphorylation; 10 nM enzyme; 20, 100, 200 or 500 μM ATP; room temperature, 2 hours; read-out: Ki activity in the homogenous time resolved fluorescence (HTRF) assay for NIK

T1 sequence (Q99558 400-655 limits assumed): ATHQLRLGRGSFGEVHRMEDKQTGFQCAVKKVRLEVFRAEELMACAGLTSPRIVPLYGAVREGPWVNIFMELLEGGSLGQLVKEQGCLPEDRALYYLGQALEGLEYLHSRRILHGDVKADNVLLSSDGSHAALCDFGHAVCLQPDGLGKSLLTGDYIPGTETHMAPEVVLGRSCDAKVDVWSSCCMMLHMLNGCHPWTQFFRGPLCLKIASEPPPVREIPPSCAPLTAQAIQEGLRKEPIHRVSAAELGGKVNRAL

**Q.** How did the Ki turn out when COc1ccc(C#C[C@@](C)(O)c2nccs2)cc1Nc1nc(N)ncc1Cl [Example 146, (R)-4-(3-(2-Amino-5-chloropyrimidin-4-ylamino)-4-methoxyphenyl)-2-(thiazol-2-yl)but-3-yn-2-ol] was run?
**A.** Its Ki is less than 1 µM.

**Q.** For CC(O)(C#Cc1cccc(Nc2nc(N)ncc2Cl)n1)c1nccs1 (centres unmarked) [Example 147, 4-(6-(2-Amino-5-chloropyrimidin-4-ylamino)pyridin-2-yl)-2-(thiazol-2-yl)but-3-yn-2-ol], which Ki is on record?
**A.** The Ki was 1 to 30 µM.

**Q.** For Cc1cc(C(C)(O)C#Cc2ccc(OC3CCOCC3)c(Nc3nc(N)ncc3Cl)c2)no1 (centres unmarked) [Example 148, 4-(3-(2-Amino-5-chloropyrimidin-4-ylamino)-4-(tetrahydro-2H-pyran-4-yloxy)phenyl)-2-(5-methylisoxazol-3-yl)but-3-yn-2-ol], which Ki is on record?
**A.** Its Ki is less than 1 µM.

**Q.** Nc1ncc(Cl)c(Nc2cc(C#CC3(O)CCCC3)ccc2OC2CCOCC2)n1 [Example 149, 1-(2-(3-(2-Amino-5-chloropyrimidin-4-ylamino)-4-(tetrahydro-2H-pyran-4-yloxy)phenyl)ethynyl)cyclopentanol] was tested. Which Ki did it give?
**A.** The Ki was less than 1 µM.

**Q.** How did the Ki turn out when COc1ccc(C#CC(C)(O)c2cc(C)on2)cc1Nc1nc(N)ncc1Cl (centres unmarked) [Example 150, 4-(3-(2-Amino-5-chloropyrimidin-4-ylamino)-4-methoxyphenyl)-2-(5-methylisoxazol-3-yl)but-3-yn-2-ol] was run?
**A.** The Ki was less than 1 µM.

**Q.** COCCN(C)c1ccc(C#CC(C)(O)c2cc(C)on2)cc1Nc1nc(N)ncc1Cl (centres unmarked) [Example 151, 4-(3-(2-Amino-5-chloropyrimidin-4-ylamino)-4-((2-methoxyethyl)(methyl)amino)phenyl)-2-(5-methylisoxazol-3-yl)but-3-yn-2-ol] was tested. Which Ki did it give?
**A.** The Ki was less than 1 µM.

**Q.** With CC(O)(C#Cc1ccc(OC2CCOCC2)c(Nc2nc(N)ncc2Cl)c1)c1nccs1 (centres unmarked) [Example 152, 4-(3-(2-Amino-5-chloropyrimidin-4-ylamino)-4-(tetrahydro-2H-pyran-4-yloxy)phenyl)-2-(thiazol-2-yl)but-3-yn-2-ol] as the compound, how does the Ki read?
**A.** Its Ki is less than 1 µM.

**Q.** For COCCN(C)c1ccc(C#C[C@](C)(O)c2nccs2)cc1Nc1nc(N)ncc1Cl [Example 153, (S)-4-(3-(2-Amino-5-chloropyrimidin-4-ylamino)-4-((2-methoxyethyl)(methyl)-amino)phenyl)-2-(thiazol-2-yl)but-3-yn-2-ol], which Ki is on record?
**A.** The Ki was 1 to 30 µM.

**Q.** With COCCN(C)c1ccc(C#C[C@@](C)(O)c2nccs2)cc1Nc1nc(N)ncc1Cl [Example 154, (R)-4-(3-(2-Amino-5-chloropyrimidin-4-ylamino)-4-((2-methoxyethyl)(methyl)amino)phenyl)-2-(thiazol-2-yl)but-3-yn-2-ol] as the compound, how does the Ki read?
**A.** Its Ki is less than 1 µM.

**Q.** CC(O)(C#Cc1ccc(O[C@H]2CCOC2)c(Nc2nc(N)ncc2Cl)c1)c1nccs1 (some centres unmarked) [Example 155] was tested. Which Ki did it give?
**A.** Its Ki is less than 1 µM.

**Q.** Which Ki does the source give for Cc1cc(C(C)(O)C#Cc2ccc(O[C@H]3CCOC3)c(Nc3nc(N)ncc3Cl)c2)no1 (some centres unmarked) [Example 156] here?
**A.** The Ki was less than 1 µM.

**Q.** Which Ki does the source give for CC(O)(C#Cc1ccc(CN2CCOCC2)c(Nc2nc(N)ncc2Cl)c1)c1nccs1 (centres unmarked) [Example 157, 4-(3-(2-Amino-5-chloropyrimidin-4-ylamino)-4-(morpholinomethyl)phenyl)-2-(thiazol-2-yl)but-3-yn-2-ol] here?
**A.** Its Ki is less than 1 µM.

**Q.** Which Ki does the source give for Cc1cc(C(C)(O)C#Cc2ccc(CN3CCOCC3)c(Nc3nc(N)ncc3Cl)c2)no1 (centres unmarked) [Example 158, 4-(3-(2-Amino-5-chloropyrimidin-4-ylamino)-4-(morpholinomethyl)phenyl)-2-(5-methylisoxazol-3-yl)but-3-yn-2-ol] here?
**A.** The Ki was less than 1 µM.

**Q.** CC(O)(C#Cc1ccc(O[C@@H]2CCOC2)c(Nc2nc(N)ncc2Cl)c1)c1nccs1 (some centres unmarked) [Example 159] was tested. Which Ki did it give?
**A.** Its Ki is less than 1 µM.

**Q.** Cc1ccc(C#CC(C)(O)c2nccs2)cc1Nc1nc(N)ncc1Cl (centres unmarked) [Example 160, 4-(3-(2-Amino-5-chloropyrimidin-4-ylamino)-4-methylphenyl)-2-(thiazol-2-yl)but-3-yn-2-ol] was tested. Which Ki did it give?
**A.** The Ki was less than 1 µM.

**Q.** Cc1cc(C(C)(O)C#Cc2ccc(C)c(Nc3nc(N)ncc3Cl)c2)no1 (centres unmarked) [Example 161, 4-(3-(2-Amino-5-chloropyrimidin-4-ylamino)-4-methylphenyl)-2-(5-methylisoxazol-3-yl)but-3-yn-2-ol] was tested. Which Ki did it give?
**A.** The Ki was less than 1 µM.

**Q.** For C[C@](O)(C#Cc1ccc(CN2CCOCC2)c(Nc2nc(N)ncc2Cl)c1)c1nccs1 [Example 162, (S)-4-(3-(2-Amino-5-chloropyrimidin-4-ylamino)-4-(morpholinomethyl)phenyl)-2-(thiazol-2-yl)but-3-yn-2-ol], which Ki is on record?
**A.** Its Ki is less than 1 µM.

**Q.** With C[C@@](O)(C#Cc1ccc(CN2CCOCC2)c(Nc2nc(N)ncc2Cl)c1)c1nccs1 [Example 163, (R)-4-(3-(2-Amino-5-chloropyrimidin-4-ylamino)-4-(morpholinomethyl)phenyl)-2-(thiazol-2-yl)but-3-yn-2-ol] as the compound, how does the Ki read?
**A.** The Ki was less than 1 µM.

**Q.** CN(c1cc(C#CC(C)(O)c2nccs2)ccc1OC1CCOCC1)c1nc(N)ncc1Cl (centres unmarked) [Example 165, 4-(3-((2-amino-5-chloropyrimidin-4-yl)(methyl)amino)-4-(tetrahydro-2H-pyran-4-yloxy)phenyl)-2-(thiazol-2-yl)but-3-yn-2-ol] was tested. Which Ki did it give?
**A.** Its Ki is less than 1 µM.

**Q.** With CC(O)(C#Cc1ccc(F)c(Nc2nc(N)ncc2Cl)c1)c1nccs1 (centres unmarked) [Example 166, 4-(3-(2-Amino-5-chloropyrimidin-4-ylamino)-4-fluorophenyl)-2-(thiazol-2-yl)but-3-yn-2-ol] as the compound, how does the Ki read?
**A.** The Ki was less than 1 µM.

**Q.** Which Ki does the source give for Cc1cc(C(C)(O)C#Cc2ccc(F)c(Nc3nc(N)ncc3Cl)c2)no1 (centres unmarked) [Example 167, 4-(3-(2-Amino-5-chloropyrimidin-4-ylamino)-4-fluorophenyl)-2-(5-methylisoxazol-3-yl)but-3-yn-2-ol] here?
**A.** Its Ki is less than 1 µM.

**Q.** CC(O)(C#Cc1cncc(C(=O)Nc2ccncn2)c1)c1nccs1 (centres unmarked) [Example 168, 5-(3-Hydroxy-3-(thiazol-2-yl)but-1-ynyl)-N-(pyrimidin-4-yl)nicotinamide] was tested. Which Ki did it give?
**A.** Its Ki is 1 to 30 µM.

**Q.** How did the Ki turn out when CC(O)(C#Cc1ccc(O[C@H]2CCOC2)c(Nc2ccncc2)c1)c1nccs1 (some centres unmarked) [Example 169] was run?
**A.** Its Ki is 1 to 30 µM.

**Q.** For Cc1ccc(C#CC(C)(O)c2nccs2)cc1Nc1ccc(C#N)cn1 (centres unmarked) [Example 170, 6-(5-(3-Hydroxy-3-(thiazol-2-yl)but-1-ynyl)-2-methylphenylamino)nicotinonitrile], which Ki is on record?
**A.** The Ki was 1 to 30 µM.

**Q.** For CC(O)(C#Cc1ccc(OC2CCOCC2)c(Nc2ncncc2Cl)c1)c1nccs1 (centres unmarked) [Example 171, 4-(3-(5-Chloropyrimidin-4-ylamino)-4-(tetrahydro-2H-pyran-4-yloxy)phenyl)-2-(thiazol-2-yl)but-3-yn-2-ol], which Ki is on record?
**A.** Its Ki is less than 1 µM.

**Q.** Cc1ccc(C#CC(C)(O)c2nccs2)cc1Nc1ccncc1 (centres unmarked) [Example 172, 4-(4-Methyl-3-(pyridin-4-ylamino)phenyl)-2-(thiazol-2-yl)but-3-yn-2-ol] was tested. Which Ki did it give?
**A.** Its Ki is 1 to 30 µM.

**Q.** With CC(O)(C#Cc1cccc(Nc2ccncn2)n1)c1nccs1 (centres unmarked) [Example 173, 4-(6-(pyrimidin-4-ylamino)pyridin-2-yl)-2-(thiazol-2-yl)but-3-yn-2-ol] as the compound, how does the Ki read?
**A.** Its Ki is less than 1 µM.

**Q.** For CC(O)(C#Cc1cccc(Nc2ccncc2C(F)(F)F)n1)c1nccs1 (centres unmarked) [Example 174, 2-(thiazol-2-yl)-4-(6-(3-(trifluoromethyl)pyridin-4-ylamino)pyridin-2-yl)but-3-yn-2-ol], which Ki is on record?
**A.** The Ki was 1 to 30 µM.

**Q.** Which Ki does the source give for CC(O)(C#Cc1cccc(N(CCN2CCOCC2)c2ccncn2)n1)c1nccs1 (centres unmarked) [Example 175, 4-(6-((2-morpholinoethyl)(pyrimidin-4-yl)amino)pyridin-2-yl)-2-(thiazol-2-yl)but-3-yn-2-ol] here?
**A.** The Ki was 1 to 30 µM.

**Q.** For Cc1cc([C@](C)(O)C#Cc2ccc(F)c(Nc3nc(N)ncc3Cl)c2)no1 [Example 176, (R)-4-(3-(2-Amino-5-chloropyrimidin-4-ylamino)-4-fluorophenyl)-2-(5-methylisoxazol-3-yl)but-3-yn-2-ol], which Ki is on record?
**A.** The Ki was less than 1 µM.

**Q.** How did the Ki turn out when Cc1cc([C@@](C)(O)C#Cc2ccc(F)c(Nc3nc(N)ncc3Cl)c2)no1 [Example 177, (S)-4-(3-(2-amino-5-chloropyrimidin-4-ylamino)-4-fluorophenyl)-2-(5-methylisoxazol-3-yl)but-3-yn-2-ol] was run?
**A.** Its Ki is 1 to 30 µM.

**Q.** For CN1CC2(C1)CN(c1nc(N)ncc1Cl)c1cc(C#CC3(O)CCCC3)ccc12 [Example 180, 1-((1′-(2-amino-5-chloropyrimidin-4-yl)-1-methylspiro[azetidine-3,3′-indoline]-6′-yl)ethynyl)cyclopentanol], which Ki is on record?
**A.** The Ki was less than 1 µM.

**Q.** COCCN1CC2(C1)CN(c1nc(N)ncc1Cl)c1cc(C#C[C@@](C)(O)c3nccs3)ccc12 [Example 183, (2R)-4-(1′-(2-amino-5-chloropyrimidin-4-yl)-1-(2-methoxyethyl)spiro[azetidine-3,3′-indoline]-6′-yl)-2-(thiazol-2-yl)but-3-yn-2-ol] was tested. Which Ki did it give?
**A.** Its Ki is less than 1 µM.

**Q.** Which Ki does the source give for C[C@@](O)(C#Cc1ccc2c(c1)N(c1nc(N)ncc1Cl)CC21CN(CCS(C)(=O)=O)C1)c1nccs1 [Example 184, (R)-4-(1′-(2-amino-5-chloropyrimidin-4-yl)-1-(2-(methylsulfonyl)ethyl)spiro[azetidine-3,3′-indoline]-6′-yl)-2-(thiazol-2-yl)but-3-yn-2-ol] here?
**A.** Its Ki is less than 1 µM.

**Q.** CN1CCC2(CC1)CN(c1nc(N)ncc1Cl)c1cc(C#CC3(O)CCCC3)ccc12 [Example 185, 1-((1-(2-Amino-5-chloro-4-pyrimidinyl)-1′-methyl-1,2-dihydrospiro[indole-3,4′-piperidin]-6-yl)ethynyl)cyclopentanol] was tested. Which Ki did it give?
**A.** The Ki was less than 1 µM.

**Q.** Which Ki does the source give for CN1CCC2(CC1)CN(c1nc(N)ncc1F)c1cc(C#CC3(O)CCCC3)ccc12 [Example 186, 1-((1-(2-amino-5-fluoropyrimidin-4-yl)-1′-methylspiro[indoline-3,4′-piperidine]-6-yl)ethynyl)cyclopentanol] here?
**A.** The Ki was less than 1 µM.

**Q.** How did the Ki turn out when CN1CCC2(CC1)CN(c1nc(N)nc3[nH]cnc13)c1cc(C#CC3(O)CCCC3)ccc12 [Example 187, 1-((1-(2-amino-9H-purin-6-yl)-1′-methylspiro[indoline-3,4′-piperidine]-6-yl)ethynyl)cyclopentanol] was run?
**A.** Its Ki is less than 1 µM.

**Q.** With CN1CCC2(C1)CN(c1nc(N)nc3[nH]cnc13)c1cc(C#CC3(O)CCCC3)ccc12 (centres unmarked) [Example 191, 1-((1-(2-Amino-9H-purin-6-yl)-1′-methyl-1,2-dihydrospiro[indole-3,3′-pyrrolidin]-6-yl)ethynyl)cyclopentanol] as the compound, how does the Ki read?
**A.** Its Ki is less than 1 µM.
